Measurements: patent US9273364B2 (Kyoto University, priority 2010, dated 2016)
Where a name gives a salt, the structure may show the parent alone.

The molecules below were run on alternative splicing of a specific gene (GFP/RFP reporter) (assay: Compound screen with GFP/RFP alternative splicing reporter). Details: not given.
Format: cell-based
From the text: Strategy of a method for testing whether or not a compound to be tested affects an alternative splicing of a specific gene in a mammalian multicelluar organism is shown in FIG. 14.
The reporter proteins used for the method are GFP and FRP.

| Molecule | Number of cells | GFP/RFP (Ctrl = 1) | cell count per well (c9; column head not printed in these continuation tables, meaning inferred) | reporter fluorescence ratio, GFP/RFP (c11; column head not printed in these continuation tables, table sorted descending by it) | ratio in column 11 (head not shown in this continuation table; table sorted by it in descending order; apparently GFP/RFP reporter ratio) | count per well with compound (column 9, head not shown; probably cell number; c10 = plate reference) | reporter fluorescence ratio relative to control (last column of Table 4, head not shown; table sorted by this value) |
| --- | --- | --- | --- | --- | --- | --- | --- |
| CCOC(=O)[C@H](CCc1ccccc1)N[C@@H](C)C(=O)N1Cc2ccccc2C[C@H]1C(=O)O (racemic) [Quinapril HCl] | 3149 |  |  |  |  |  |  |
| Cl.Cl.O=C1c2c(O)ccc(O)c2C(=O)c2c(NCCNCCO)ccc(NCCNCCO)c21 [Mitoxantrone 2HCl] | 31 |  |  |  |  |  |  |
| Bleomycin sulfate |  | 1.477 |  |  |  |  |  |
| CC(C)CN(C[C@@H](O)[C@H](Cc1ccccc1)NC(=O)O[C@H]1CCOC1)S(=O)(=O)c1ccc(N)cc1 (racemic) [Amprenavir] | 2564 |  |  |  |  |  |  |
| N.N.O=C([O-])C1(C(=O)[O-])CCC1.[Pt+2] [Carboplatin] |  | 1.875 |  |  |  |  |  |
| C[C@@H]1[C@H](O)[C@@H](C)/C=C/C=C/CC/C=C/C=C/C=C/C=C/C(O[C@H]2O[C@H](C)[C@@H](O)[C@H](N)[C@@H]2O)CC2O[C@](O)(CC(O)C(O)CCC(O)CC(O)CC(O)CC(=O)O[C@H]1C)CC(O)C2C(=O)O (stereo partly drawn) [Nystatin] |  | 1.253 |  |  |  |  |  |
| O=P1(N(CCCl)CCCl)NCCCO1 (stereo not drawn) [Cyclophosphamide monohydrate] |  |  | 3065 |  |  |  |  |
| O=C1[O][Pt]2([NH][C@@H]3CCCC[C@H]3[NH]2)[O]C1=O [Oxaliplatin] |  | 2.271 |  |  |  |  |  |
| CC1(C)S[C@@H]2[C@H](NC(=O)COc3ccccc3)C(=O)N2[C@H]1C(=O)[O-].[K+] [Pencillin v potassium] |  |  |  | 1.134 |  |  |  |
| N[C@@H]1C[C@H]1c1ccccc1 (racemic) [Tranylcypromine] |  |  |  |  | 0.7492 |  |  |
| NC(=O)c1ncn([C@@H]2O[C@H](CO)[C@@H](O)[C@H]2O)n1 (racemic) [Ribavirin] | 3140 |  |  |  |  |  |  |
| CC[C@@]1(O)C(=O)OCc2c1cc1n(c2=O)Cc2cc3cc(O)ccc3nc2-1 [10-hydroxycamptothecin] |  | 3.114 |  |  |  |  |  |
| CCCC(=O)OCC[N+](C)(C)C.[Cl-] [Butyrylcholine Cl] |  |  |  |  |  | 4016 | 1.016 |
| CC1(C)C[C@@H]1C(=O)N/C(=C\CCCCSC[C@H](N)C(=O)O)C(=O)O [Cilastatin] |  |  | 2885 |  |  |  |  |

Now from value to molecule, other results behind:

| Number of cells | Molecule | GFP/RFP (Ctrl = 1) | cell count per well (c9; column head not printed in these continuation tables, meaning inferred) | reporter fluorescence ratio, GFP/RFP (c11; column head not printed in these continuation tables, table sorted descending by it) | ratio in column 11 (head not shown in this continuation table; table sorted by it in descending order; apparently GFP/RFP reporter ratio) | count per well with compound (column 9, head not shown; probably cell number; c10 = plate reference) | reporter fluorescence ratio relative to control (last column of Table 4, head not shown; table sorted by this value) |
| --- | --- | --- | --- | --- | --- | --- | --- |
| 2109 | COc1cc2nc(N3CCN(C(=O)c4ccco4)CC3)nc(N)c2cc1OC [Prazosin HCl] |  |  |  |  |  |  |
| 2622 | O=C1CCC(N2C(=O)c3ccccc3C2=O)C(=O)N1 (stereo not drawn) [Thaldomide] |  |  |  |  |  |  |
| 3470 | C[C@@](Cc1ccc(O)c(O)c1)(NN)C(=O)O [Carbidopa] |  |  |  |  |  |  |
| 4053 | Salbutamol sulfate |  |  |  |  |  |  |
| 3205 | C#C[C@]1(O)CC[C@H]2[C@@H]3CCC4=CC(=O)CC[C@@H]4[C@H]3CC[C@@]21C (racemic) [Norethindrone] |  |  |  |  |  |  |
| 3724 | CN(C)CCC(c1ccc(Cl)cc1)c1ccccn1 (racemic) [Chlorpheniramine maleate] |  |  |  |  |  |  |
| 2356 | Cc1cn([C@H]2C[C@H](N=[N+]=[N-])[C@@H](CO)O2)c(=O)[nH]c1=O (racemic) [3′-azido-3′-deoxythymidine] |  |  |  |  |  |  |
| 3042 | CCCc1nc2c(C)cc(-c3nc4ccccc4n3C)cc2n1Cc1ccc(-c2ccccc2C(=O)O)cc1 (racemic) [Telmisartan] |  |  |  |  |  |  |
| 4151 | CCC(NC(C)C)C(O)c1ccc(O)c2[nH]c(=O)ccc12 (stereo not drawn) [Procaterol hcl] |  |  |  |  |  |  |
| 3060 | Cc1ccc(-c2cc(C(F)(F)F)nn2-c2ccc(S(N)(=O)=O)cc2)cc1 (racemic) [Celecoxib] |  |  |  |  |  |  |

Same assay, conditions: 50 ng/mL

| Molecule | Number of cells |
| --- | --- |
| Nc1ccn([C@@H]2O[C@H](CO)[C@@H](O)C2(F)F)c(=O)n1 (racemic) [Gemcitabine HCl] | 156 |
| CN(C)CCOc1ccc(/C(=C(/CCCl)c2ccccc2)c2ccccc2)cc1 (racemic) [Toremifene] | 250 |
| COc1cccc2c1C(=O)c1c(O)c3c(c(O)c1C2=O)C[C@@](O)(C(=O)CO)C[C@@H]3O[C@H]1C[C@H](N)[C@H](O)[C@H](C)O1 [Doxorubicin HCl] | 18 |
| Clc1ccc(C(Cn2ccnc2)OCc2ccsc2Cl)c(Cl)c1 (racemic) [Tioconazole] | 850 |
| COc1cccc2c1C(=O)c1c(O)c3c(c(O)c1C2=O)C[C@@](O)(C(C)=O)C[C@@H]3O[C@H]1C[C@H](N)[C@H](O)[C@H](C)O1 [Daunorubicin HCl] | 3 |
| CC[C@@]1(O)C(=O)OCc2c1cc1n(c2=O)Cc2cc3c(CN(C)C)c(O)ccc3nc2-1 (racemic) [Topotecan] | 259 |
| CCCCC(C)(O)C/C=C/[C@H]1[C@H](O)CC(=O)[C@@H]1CCCCCCC(=O)OC (mixture of isomers) [Misoprostol] | 3052 |
| CCN(CC)CCOc1ccc(C(=C(Cl)c2ccccc2)c2ccccc2)cc1 (racemic) [Clomiphene citrate] | 95 |
| CCCCC[C@H](O)/C=C/[C@H]1[C@H](O)CC(=O)[C@@H]1CCCCCCC(=O)O [Alprostadil] | 3505 |

Continued, values first:

| Number of cells | Molecule |
| --- | --- |
| 719 | CC(=O)O[C@H]1C(=O)[C@@]2(C)[C@H]([C@H](OC(=O)c3ccccc3)[C@]3(O)C[C@H](OC(=O)[C@H](O)[C@@H](NC(=O)c4ccccc4)c4ccccc4)C(C)=C1C3(C)C)[C@]1(OC(C)=O)CO[C@@H]1C[C@@H]2O [Taxol] |
| 1367 | COc1c(C)c2c(c(O)c1C/C=C(\C)CCC(=O)O)C(=O)OC2 [Mycophenolic acid] |
| 38 | COc1ccc(CCN2CCC(Nc3nc4ccccc4n3Cc3ccc(F)cc3)CC2)cc1 [Astemizole] |
| 73 | N=c1ccn2c(n1)O[C@H]1[C@H](O)[C@@H](CO)O[C@H]12 (racemic) [Cyclocytidine HCl] |
| 142 | O=c1[nH]c(=O)n([C@H]2C[C@H](O)[C@@H](CO)O2)cc1F (racemic) [Floxuridine] |
| 3018 | CC(C)C(=O)c1c(C(C)C)nn2ccccc12 (racemic) [Ibudilast] |
| 3092 | COc1cc(NS(=O)(=O)c2ccc(N)cc2)nc(OC)n1 (racemic) [Sulfadimethoxine] |
| 48 | Nc1ccn([C@@H]2O[C@H](CO)[C@@H](O)[C@@H]2O)c(=O)n1 (racemic) [Cytarabine] |
| 2210 | Cc1coc2c1C(=O)C(=O)c1c-2ccc2c1CCCC2(C)C [Tanshinone iia] |
| 3056 | COc1ccc(CC2c3cc(OC)c(OC)cc3CC[N+]2(C)CCC(=O)OCCCCCOC(=O)CC[N+]2(C)CCc3cc(OC)c(OC)cc3C2Cc2ccc(OC)c(OC)c2)cc1OC (racemic) [Atracurium besylate] |
| 19 | Nc1nc(Cl)nc2c1ncn2[C@@H]1O[C@H](CO)[C@@H](O)[C@@H]1F (racemic) [Clofarabine] |
| 278 | COC(=O)Nc1nc2ccc(Sc3ccccc3)cc2[nH]1 (racemic) [Fenbendazole] |
| 542 | CC/C(=C(/CC)c1ccc(O)cc1)c1ccc(O)cc1 (racemic) [Diethylstilbestrol] |
| 3489 | CC(C)(C)NCC(O)c1ccccc1Cl (racemic) [Tulobuterol] |
| 34 | CC(=O)[C@]1(O)Cc2c(O)c3c(c(O)c2[C@@H](O[C@H]2C[C@H](N)[C@H](O)[C@H](C)O2)C1)C(=O)c1ccccc1C3=O (racemic) [Idarubicin] |
| 1482 | Nc1ncnc2c1ncn2[C@@H]1O[C@H](CO)[C@@H](O)[C@@H]1O (racemic) [Vidarabine] |
| 2732 | Clc1ccc(CO/N=C(\Cn2ccnc2)c2ccc(Cl)cc2Cl)c(Cl)c1 (racemic) [Oxiconazole nitrate] |
| 156 | COC(=O)C1=C(C)NC(C)=C(C(=O)OC)C1c1ccccc1[N+](=O)[O-] [Nifedipine] |
| 1863 | Clc1ccc(C(Cn2ccnc2)OCc2csc3c(Cl)cccc23)c(Cl)c1 (racemic) [Sertaconazole] |
| 2985 | CN1CCCN=C1/C=C/c1cccs1 (racemic) [Pyrantel pamoate] |
| 921 | c1ccc(-c2ccc(C(c3ccccc3)n3ccnc3)cc2)cc1 (racemic) [Bifonazole] |
| 2922 | O=C(NC(Cc1cc(=O)[nH]c2ccccc12)C(=O)O)c1ccc(Cl)cc1 (racemic) [Rebamipide] |
| 3112 | COc1cc2nc(N3CCN(C(=O)C4CCCO4)CC3)nc(N)c2cc1OC (racemic) [Terazosin HCl] |

Same assay, conditions: cell count after compound at final conc.; Ctrl number of cells 4303-5627

| Molecule | Number of cells |
| --- | --- |
| O=C(O)CCCc1ccc(N(CCCl)CCCl)cc1 (racemic) [Chlorambucil] | 841 |
| COC(=O)Nc1nc2ccc([S+]([O-])c3ccccc3)cc2[nH]1 (racemic) [Oxfendazole] | 1712 |
| C[C@]12CC[C@@H]3c4ccc(O)cc4C[C@@H](CCCCCCCCC[S+]([O-])CCCC(F)(F)C(F)(F)F)[C@H]3[C@@H]1CC[C@@H]2O (mixture of isomers) [Fulvestrant] | 2156 |
| Bleomycin sulfate | 2702 |
| N.N.O=C([O-])C1(C(=O)[O-])CCC1.[Pt+2] [Carboplatin] | 1373 |
| COc1ccc2c(c1)[nH]c1c(C)nccc12 [Harmine] | 537 |
| C[C@@H]1[C@H](O)[C@@H](C)/C=C/C=C/CC/C=C/C=C/C=C/C=C/C(O[C@H]2O[C@H](C)[C@@H](O)[C@H](N)[C@@H]2O)CC2O[C@](O)(CC(O)C(O)CCC(O)CC(O)CC(O)CC(=O)O[C@H]1C)CC(O)C2C(=O)O (stereo partly drawn) [Nystatin] | 3293 |
| COc1ccc(C2CNC(=O)C2)cc1OC1CCCC1 (stereo not drawn) [Rolipram] | 2878 |
| O=C1[O][Pt]2([NH][C@@H]3CCCC[C@H]3[NH]2)[O]C1=O [Oxaliplatin] | 825 |
| CC[C@@]1(O)C(=O)OCc2c1cc1n(c2=O)Cc2cc3cc(O)ccc3nc2-1 [10-hydroxycamptothecin] | 541 |
| CC(CCc1ccc(O)cc1)NCCc1ccc(O)c(O)c1 (stereo not drawn) [Dobutamine HCl] | 2991 |
| C[N+](C)(C)CCOC(=O)CCC(=O)OCC[N+](C)(C)C (racemic) [Succinylcholine] | 2727 |
| COc1c(C)c2c(c(O)c1C/C=C(\C)CCC(=O)OCCN1CCOCC1)C(=O)OC2 (racemic) [Mycophenolate mofetil] | 500 |
| N[C@@H](Cc1ccc(N(CCCl)CCCl)cc1)C(=O)O (racemic) [Melphalan] | 483 |
| CCC[S+]([O-])c1ccc2[nH]c(NC(=O)OC)nc2c1 (racemic) [Ricobendazole] | 1381 |

Same assay, conditions: reporter ratio relative to control = 1; final conc. per compound (μM, 50 ng/mL)

| Molecule | GFP/RFP (Ctrl = 1) |
| --- | --- |
| Cl.Cl.O=C1c2c(O)ccc(O)c2C(=O)c2c(NCCNCCO)ccc(NCCNCCO)c21 [Mitoxantrone 2HCl] | 2.651 |
| O=C1CCC(N2C(=O)c3ccccc3C2=O)C(=O)N1 (stereo not drawn) [Thaldomide] | 1.271 |
| Salbutamol sulfate | 1.295 |
